Laboratory results from publication PMC7023430, “4-Aminobenzoic Acid Derivatives: Converting Folate Precursor to Antimicrobial and Cytotoxic Agents” (Biomolecules, 2019).
≈ marks a conversion by molar mass, not a printed value. Where two headings read alike, the source gives them in different places.

Tests used:
[1] = system: Staphylococcus aureus ATCC 29213, CCM 4223; experiment: Antibacterial microdilution broth method, S. aureus; assay type: cell-based
[2] = system: Staphylococcus epidermidis H 6966/08; experiment: Antibacterial microdilution broth method, S. epidermidis; assay type: cell-based; conditions: Staphylococcus epidermidis, H6966/08, S. epidermidis
[3] = system: Enterococcus faecalis ATCC 29212, CCM 4224; experiment: Antibacterial microdilution broth method, E. faecalis; assay type: cell-based; conditions: Enterococcus faecalis
[4] = system: Escherichia coli ATCC 25922, CCM 3954; experiment: Antibacterial microdilution broth method, E. coli; assay type: cell-based; conditions: Escherichia coli
[5] = system: Pseudomonas aeruginosa ATCC 27853, CCM 3955; experiment: Antibacterial microdilution broth method, P. aeruginosa; assay type: cell-based; conditions: Pseudomonas aeruginosa
[6] = system: Mycobacterium tuberculosis H37Rv (331/88); experiment: Antimycobacterial micromethod in Šula's medium, M. tuberculosis; assay type: cell-based
[7] = system: Mycobacterium avium 330/88; experiment: Antimycobacterial micromethod in Šula's medium, M. avium; assay type: cell-based
[8] = system: M. kansasii 6509/96 (clinical isolate); experiment: Antimycobacterial micromethod in Šula's medium, M. kansasii 6509/96; assay type: cell-based; conditions: Mycobacterium kansasii
[9] = system: Candida albicans ATCC 44859; experiment: Antifungal microdilution broth method, C. albicans; assay type: cell-based
Method in brief: (§1)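 Panel covers five yeasts and three filamentous fungi tested by a slightly modified EUCAST microdilution protocol. Growth medium is glucose-supplemented (2%) RPMI-1640 with L-glutamine at pH 7.0 (MOPS). Endpoints are judged visually from duplicate runs.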

Candida tropicalis 156 = experiment: Antifungal microdilution broth method, C. tropicalis; assay type: cell-based
Method in brief: as §1

Candida krusei E28 = experiment: Antifungal microdilution broth method, C. krusei; assay type: cell-based; conditions: Pichia kudriavzevii
Method in brief: as §1

Trichosporon asahii 1188 = experiment: Antifungal microdilution broth method, T. asahii; assay type: cell-based
Method in brief: as §1

[10] = system: Aspergillus fumigatus 231; experiment: Antifungal microdilution broth method, A. fumigatus; assay type: cell-based
Method in brief: as §1

[11] = system: Lichtheimia corymbifera 272; experiment: Antifungal microdilution broth method, L. corymbifera; assay type: cell-based
Method in brief: as §1

[12] = system: Trichophyton interdigitale 445; experiment: Antifungal microdilution broth method, T. interdigitale; assay type: cell-based
Method in brief: as §1

HepG2 cells = experiment: Cytotoxicity, CellTiter 96 assay; assay type: cell-based, human; conditions: Homo sapiens, HepG2, 24 h, 24 h incubation
Method in brief: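 HepG2 cells (10,000/well) exposed 24 h at 37 °C, 5% CO2 to compounds in DMSO (≤1% v/v final), triplicates. Viability by tetrazolium-to-formazan reduction (CellTiter 96 AQueous One), absorbance 490 nm after 2 h. IC50 from nonlinear regression versus untreated controls; 10% DMSO defined 0% viability.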

[13] = system: ESBL-positive Klebsiella pneumoniae J 14368/08
[14] = 24 h incubation, read-out: MIC SA 24 h
[15] = 48 h incubation, read-out: MIC SA 48 h
[16] = 24 h incubation, read-out: MIC SE 24 h
[17] = 48 h incubation, read-out: MIC SE 48 h
[18] = 24 h incubation, read-out: MIC EF 24 h
[19] = 48 h incubation, read-out: MIC EF 48 h
[20] = 24 h incubation, read-out: MIC EC 24 h
[21] = 48 h incubation, read-out: MIC EC 48 h
[22] = P. aeruginosa, 24 h incubation, read-out: MIC PA 24 h
[23] = P. aeruginosa, 48 h incubation, read-out: MIC PA 48 h
[24] = 336 h, 14 days incubation at 37 °C, read-out: MIC Mtb. 331/88 14 d
[25] = 504 h, 21 days incubation at 37 °C, read-out: MIC Mtb. 331/88 21 d
[26] = 330/88, 336 h, 14 days incubation at 37 °C, read-out: MIC M. avium 330/88 14 d
[27] = 330/88, 504 h, 21 days incubation at 37 °C, read-out: MIC M. avium 330/88 21 d
[28] = 168 h, 7 days incubation at 37 °C, read-out: MIC M. kansasii 6509/96 7 d
[29] = 336 h, 14 days incubation at 37 °C, read-out: MIC M. kansasii 6509/96 14 d
[30] = 504 h, 21 days incubation at 37 °C, read-out: MIC M. kansasii 6509/96 21 d
[31] = ATCC44859, 24 h, read-out: MIC CA 24 h
[32] = ATCC44859, 48 h, read-out: MIC CA 48 h

Row | SMILES | MIC [1, 14] [µM] | MIC [1, 15] [µM] | MIC [2, 16] [µM] | MIC [2, 17] [µM] | MIC [3, 18] [µM] | MIC [3, 19] [µM] | MIC [4, 20] [µM] | MIC [4, 21] [µM] | MIC [5, 22] [µM] | MIC [5, 23] [µM] | MIC [6, 24] [µM] | MIC [6, 25] [µM] | MIC [7, 26] [µM] | MIC [7, 27] [µM] | MIC [8, 28] [µM] | MIC [8, 29] [µM] | MIC [8, 30] [µM] | MIC [9, 31] [µM] | MIC [9, 32] [µM] | MIC (Candida tropicalis 156; 24 h, read-out: MIC CT 24 h) [µM] | further results
1 | O=C(O)c1ccc(N=Cc2ccc([N+](=O)[O-])o2)cc1 [1r, 4-{[(5-Nitrofuran-2-yl)methylene]amino}benzoic acid] | 62.5 (≈ 16.3 µg/mL) | 62.5 (≈ 16.3 µg/mL) | 125 (≈ 32.5 µg/mL) | 125 (≈ 32.5 µg/mL) | > 500 | > 500 | > 500 | > 500 | 500 (≈ 130 µg/mL) | 500 (≈ 130 µg/mL) | 62.5 (≈ 16.3 µg/mL) | 125 (≈ 32.5 µg/mL) | 250 (≈ 65.1 µg/mL) | 500 (≈ 130 µg/mL) | 125 (≈ 32.5 µg/mL) | 125 (≈ 32.5 µg/mL) | 250 (≈ 65.1 µg/mL) | 250 (≈ 65.1 µg/mL) | 250 (≈ 65.1 µg/mL) | 250 (≈ 65.1 µg/mL) | MIC ([5]; time not stated, read-out: MIC, P. aeruginosa): 500 µM (≈ 130 µg/mL); MIC (Candida tropicalis 156; 48 h, read-out: MIC CT 48 h): 250 µM (≈ 65.1 µg/mL); MIC (Candida krusei E28; 24 h, read-out: MIC CK 24 h): 62.5 µM (≈ 16.3 µg/mL); MIC (Candida krusei E28; 48 h, read-out: MIC CK 48 h): 62.5 µM (≈ 16.3 µg/mL); MIC (Trichosporon asahii 1188; 24 h, read-out: MIC TA 24 h): 500 µM (≈ 130 µg/mL); MIC (Trichosporon asahii 1188; 48 h, read-out: MIC TA 48 h): 500 µM (≈ 130 µg/mL); MIC ([10]; 24 h, read-out: MIC AF 24 h): > 500 µM; MIC ([10]; 48 h, read-out: MIC AF 48 h): > 500 µM; MIC ([11]; 24 h, read-out: MIC LC 24 h): > 500 µM; MIC ([11]; 48 h, read-out: MIC LC 48 h): > 500 µM; MIC ([12]; 72 h, read-out: MIC TI 72 h): 250 µM (≈ 65.1 µg/mL); MIC ([12]; 120 h, read-out: MIC TI 120 h): 250 µM (≈ 65.1 µg/mL); IC50 (HepG2 cells): 15 µM; MIC KP-E 24 h [13]: 500 µM (≈ 130 µg/mL); MIC KP-E 48 h [13]: 500 µM (≈ 130 µg/mL)
2 | O=C(O)c1ccc(NCc2ccccc2O)cc1 [1u, 4-[(2-Hydroxybenzyl)amino]benzoic acid] | > 500 | > 500 | > 500 | > 500 | > 500 | > 500 | > 500 | > 500 | > 500 | > 500 | 1000 (≈ 243 µg/mL) | 1000 (≈ 243 µg/mL) | > 1000 | > 1000 | 1000 (≈ 243 µg/mL) | 1000 (≈ 243 µg/mL) | 1000 (≈ 243 µg/mL) | > 500 | > 500 | > 500 | MIC (Candida tropicalis 156; 48 h, read-out: MIC CT 48 h): > 500 µM; MIC (Candida krusei E28; 24 h, read-out: MIC CK 24 h): > 500 µM; MIC (Candida krusei E28; 48 h, read-out: MIC CK 48 h): > 500 µM; MIC (Trichosporon asahii 1188; 24 h, read-out: MIC TA 24 h): > 500 µM; MIC (Trichosporon asahii 1188; 48 h, read-out: MIC TA 48 h): > 500 µM; MIC ([10]; 24 h, read-out: MIC AF 24 h): > 500 µM; MIC ([10]; 48 h, read-out: MIC AF 48 h): > 500 µM; MIC ([11]; 24 h, read-out: MIC LC 24 h): > 500 µM; MIC ([11]; 48 h, read-out: MIC LC 48 h): > 500 µM; MIC ([12]; 72 h, read-out: MIC TI 72 h): > 500 µM; MIC ([12]; 120 h, read-out: MIC TI 120 h): > 500 µM; IC50 (HepG2 cells): > 500 µM; MIC KP-E 24 h [13]: >500 µM; MIC KP-E 48 h [13]: >500 µM
